In US20250011303A1, “SMALL MOLECULE MODULATORS OF IL-17A, METHODS OF MAKING AND METHODS OF USING THEREOF” (ASCLETIS BIOSCIENCE CO., LTD, priority 2023, published 2025):

Tested on: HEK-Blue IL-17 cells with rhIL-17A/A
Experiment: HEK-Blue IL-17 cell assay (SEAP reporter, rhIL-17A/A stimulation)
Type: cell-based, human
Settings: Homo sapiens, HEK-Blue, 20 h, 20 hours incubation, absorbance at 405 nm, read-out: IC50 in HEK-Bule cell Assay
Protocol: • 1. The test Compounds were 3-fold serial diluted from 10 mM for 10 doses in DMSO. • 2. Prepare Reference Compounds (IL-17A-Inhibitor-1) were 3-fold serial diluted from 1 mM for 10 doses in DMSO. • 3. Prepare 1000× Positive control (1 mM IL-17A-Inhibitor-1) and 1000× vehicle control (100% DMSO).
• a) Cells were cultured as the HEK-Blue™ IL-17 technical data sheet recommended. HEK-Blue IL-17 cells were assayed in the exponential growth phase. • b) Aspirate growth medium and rinse cells twice with PBS to remove phenol red. • c) Resuspend cells in test medium to a proper concentration. • d) Only cells with viability greater than 90% were used for assays. • e) Transfer 25 nl of compound dilutions into 384-well assay plates using Echo655; • f) Seed 25 ul of HEK-Blue IL-17 cells at 8,000 cells/well into 384-well plate with rhIL-17A/A. • g) Cells were incubated for 20 hours at 37° C. under 5% CO2 atmosphere. • h) Transfer 2 ul of cells supernatant into per well of 384-well assay plates. • i) Add 20 ul of PNPP substrate. • j) Measure the Absorbance at 405 nm on Envision 2105 plate reader.
RLU signal (LUMcmpd) is calculated for each well.
% Inhibition is calculated as follow: […]
Signalave_pc: The average signal for the positive controls across the plate.
Signalave_vc: The average signal for negative controls across the plate.
Calculate IC50 and Plot effect-dose curve of cmpds:
Calculate IC50 by fitting % Inhibition values and log of compound concentrations to nonlinear regression (dose response−variable slope) with Graphpad 8.0.

Structure (SMILES) | IC50 [nM]
CC(C)n1nccc1C(=O)N[C@H](C(=O)Nc1ccc2c(c1)OCC[C@H]2NC(=O)CCC(F)(F)F)C1CCCCCC1 [Compound 1] | 209
CC(C)n1nccc1C(=O)N[C@H](C(=O)Nc1ccc2c(c1)OCC[C@H]2NS(=O)(=O)CCC(F)(F)F)C1CCCCCC1 [Compound 5] | 333
CC(C)n1nccc1C(=O)N[C@H](C(=O)Nc1ccc2c(c1)OCC(C)(C)[C@H]2NC(=O)CCC(F)(F)F)C1CCCCCC1 [Compound 12] | 317
CC(C)n1nccc1C(=O)N[C@H](C(=O)Nc1ccc2c(c1)OC(C)(C)C[C@H]2NC(=O)CCC(F)(F)F)C1CCCCCC1 [Compound 13] | 239
CC(C)n1nccc1C(=O)N[C@H](C(=O)Nc1ccc2c(c1)OCC[C@H]2C(=O)N1CC(F)(F)C(F)(F)C1)C1CCCCCC1 [Compound 36] | 154
CCC1(CC)CC(C(=O)N2CC(F)(F)C2)c2ccc(NC(=O)[C@@H](NC(=O)c3ccnn3C(C)C)C3CCCCCC3)cc2O1 (stereo partly drawn) [Compound 108] | 102
CC(C)n1nccc1C(=O)N[C@H](C(=O)Nc1ccc2c(c1)O[C@@H](C1CC(F)(F)C1)C[C@H]2C(=O)N1CC(F)(F)C1)C1CCCCCC1 [Compound 135] | 18.9
CC(C)n1nccc1C(=O)N[C@H](C(=O)Nc1ccc2c(c1)O[C@H](C1CC(F)(F)C1)C[C@H]2C(=O)N1CC(F)(F)C1)C1CCCCCC1 [Compound 136] | 49
CC(C)n1nccc1C(=O)N[C@H](C(=O)Nc1ccc2c(c1)OC1(CCOCC1)C[C@H]2C(=O)N1CC(F)(F)C1)C1CCCCCC1 [Compound 152] | 7.49
CC(C)n1nccc1C(=O)N[C@H](C(=O)Nc1ccc2c(c1)O[C@@H](C1CC(F)(F)C1)C[C@H]2C(=O)N1CC(F)(F)C1)C(C1CC1)C1CC1 [Compound 160] | 42.1
CC(C)n1nccc1C(=O)N[C@H](C(=O)Nc1ccc2c(c1)OC1(CCOCC1)C[C@H]2C(=O)N1CC(F)(F)C1)C(C1CC1)C1CC1 [Compound 162] | 35.7
CC(C)C1CC(C(=O)N2CC(C(F)(F)F)C2)c2ccc(NC(=O)[C@@H](NC(=O)c3ccnn3C(C)C)C3CCCCCC3)cc2O1 (stereo partly drawn) [Compound 164] | 72.6
CC(C)C1CC(C(=O)N2CC3(C2)CC(F)(F)C3)c2ccc(NC(=O)[C@@H](NC(=O)c3ccnn3C(C)C)C3CCCCCC3)cc2O1 (stereo partly drawn) [Compound 165] | 127
CC(C)n1nccc1C(=O)N[C@H](C(=O)Nc1ccc2c(c1)OC(C)(C)CN2C(=O)N1CC(F)(F)C1)C1CCCCCC1 [Compound 166] | 54.5
CC(C)C1CN(C(=O)N2CC(F)(F)C2)c2ccc(NC(=O)[C@@H](NC(=O)c3ccnn3C(C)C)C3CCCCCC3)cc2O1 (stereo partly drawn) [Compound 167] | 30.4
CC(C)n1nccc1C(=O)N[C@H](C(=O)Nc1ccc2c(c1)OC1(CCOCC1)CN2C(=O)N1CC(F)(F)C1)C1CCCCCC1 [Compound 169] | 18.2
O=C(N[C@H](C(=O)Nc1ccc2c(c1)OC(C1CC(F)(F)C1)CC2C(=O)N1CC(C(F)(F)F)C1)C1CCCCCC1)OCC1CC1(F)F (stereo partly drawn) [Compound 189, (2,2-difluorocyclopropyl)methyl N—[(S)-cycloheptyl[(2-(3,3-difluorocyclobutyl)-4-(3-(trifluoromethyl)azetidine-1-carbonyl)-3,4-dihydro-2H-1-benzopyran-7-yl)carbamoyl]methyl]carbamate] | 226
O=C(N[C@H](C(=O)Nc1ccc2c(c1)OC1(CCOCC1)CC2C(=O)N1CC(F)(F)C1)C1CCCCCC1)OC[C@@H]1CC1(F)F (stereo partly drawn) [Compound 190] | 367
O=C(N[C@H](C(=O)Nc1ccc2c(c1)OC(C1CC(F)(F)C1)CC2C(=O)N1CC(F)(F)C1)C1CCCCCC1)OCc1cc(C(F)F)on1 (stereo partly drawn) [Compound 191] | 171
O=C(N[C@H](C(=O)Nc1cc2c(cc1F)C(C(=O)N1CC(F)(F)C1)CC(C1CC(F)(F)C1)O2)C1CCCCCC1)OC[C@@H]1CC1(F)F (stereo partly drawn) [Compound 192] | 267
CC(C)n1nccc1C(=O)N[C@H](C(=O)Nc1cc2c(cc1F)C(C(=O)N1CC(F)(F)C1)CC(C1CC(F)(F)C1)O2)C1CCCCCC1 (stereo partly drawn) [Compound 193] | 39.7
